Measured values from patent US9023838B2, “Crystalline form I rosuvastatin zinc salt” (Egis Gyogyszergyar Nyilvanosan Muekoedoe, priority 2009, dated 2015).
Where a name gives a salt, the structure may show the parent alone.

Columns and labels:
[1] = Chemical stability on storage at 25° C., 60% relative humidity (impurity concentrations); assay type: physicochemical; conditions: for Lactone impurity / M-2 impurity / Total impurities / Total impurities, number of peaks / Change of concentration of impurity M-2 relative to the initial concentration: 25° C.; for Lactone impurity / M-2 impurity / Total impurities / Total impurities, number of peaks: 60% RH; for Increase in the concentration of rosuvastatin lactone: after one month storage; for Change of concentration of impurity M-2 relative to the initial concentration: one month, 60% relative humidity
Experimental: Chemical stability of amorphous and crystalline Form I rosuvastatin zinc salts (2:1) has been determined by challenging said substances at the storage condition of 25° C., 60% relative humidity.

[2] = Hygroscopicity (water absorbed); assay type: physicochemical
[3] = listed as amorphous rosuvastatin zinc salt (2:1)

**Q.** What does the source list for CC(C)c1nc(N(C)S(C)(=O)=O)nc(-c2ccc(F)cc2)c1/C=C/[C@@H](O)C[C@@H](O)CC(=O)O [Amorphous, 7-[4-(4-fluorophenyl)-6-isopropyl-2-(methanesulfonyl-methyl-amino)-pyrimidin-S-yl]-(3R,5S)-dihydroxy-hept-6-enoic acid zinc salt (2:1), reference compound]?
**A.** Lactone impurity ([1]; 1 month): 0.51%; M-2 impurity ([1]; 1 month): 0.10%; Total impurities ([1]; 1 month): 0.77%; Total impurities, number of peaks ([1]; 1 month): (6 peaks); Lactone impurity ([1]; Initial): 0.10%; M-2 impurity ([1]; Initial): 0.03%; Total impurities ([1]; Initial): 0.38%; Total impurities, number of peaks ([1]; Initial): (7 peaks); Increase in the concentration of rosuvastatin lactone [1, 3]: five-fold increase; Change of concentration of impurity M-2 relative to the initial concentration ([1]; listed as amorphous form of rosuvastatin zinc salt): three-fold of the initial concentration; Amount of water absorbed [2, 3]: 1.88 % by weight

**Q.** Which Lactone impurity ([1]; 1 month) does the source give for CC(C)c1nc(N(C)S(C)(=O)=O)nc(-c2ccc(F)cc2)c1/C=C/[C@@H](O)C[C@@H](O)CC(=O)O [Form I, 7-[4-(4-fluorophenyl)-6-isopropyl-2-(methanesulfonyl-methyl-amino)-pyrimidin-5-yl]-(3R,5S)-dihydroxy-hept-6-enoic acid zinc salt (2:1)] here?
**A.** 0.32%

**Q.** And the M-2 impurity ([1]; 1 month)?
**A.** 0.08%

**Q.** And the Total impurities ([1]; 1 month)?
**A.** 0.49%

**Q.** And the “Total impurities, number of peaks” value ([1]; 1 month)?
**A.** (3 peaks)

**Q.** And the Lactone impurity ([1]; Initial)?
**A.** 0.13%

**Q.** What about the M-2 impurity ([1]; Initial) of the same compound?
**A.** 0.07%

**Q.** What about the Total impurities ([1]; Initial) of the same compound?
**A.** 0.28%

**Q.** What about the “Total impurities, number of peaks” value ([1]; Initial) of the same compound?
**A.** (3 peaks)

**Q.** And the “Increase in the concentration of rosuvastatin lactone” value ([1]; listed as crystalline Form I of rosuvastatin zinc salt (2:1))?
**A.** much less prone to form lactone of rosuvastatin

**Q.** And the “Total amount of the impurities and number of the individual impurities during storage, compared with the amorphous form” value ([1]; during storage)?
**A.** significantly lower

**Q.** What about the “Change of concentration of impurity M-2 relative to the initial concentration” value ([1]; listed as crystalline Form I substance) of the same compound?
**A.** practically unchanged

**Q.** What about the “Amount of water absorbed” value ([2]; listed as crystalline Form I rosuvastatin zinc salt (2:1)) of the same compound?
**A.** 0.24 % by weight
